The record followed here is ChEMBL document CHEMBL3046165, “Synthesis of new cyclic imides derivatives with potential hypolipidemic activity” (Med Chem Res, 2012).

Series [1] concerns Rattus norvegicus. Briefly: Toxicity in triton WR-1339-induced Rattus norvegicus albino Wistar (rat) hyperlipidemic model assessed as increase of serum LDL level at 150 mg/kg, po qd after 24 hr. Format: organism-based. Set-up: dose 150 mg/kg, route oral. As to conditions: in vivo.
For series [2], the system named is Rattus norvegicus. The series can be described thus: Toxicity in triton WR-1339-induced Rattus norvegicus albino Wistar (rat) hyperlipidemic model assessed as reduction of serum HDL level at 150 mg/kg, po qd after 24 hr. As to conditions: in vivo. The series is classed as organism-based. Set-up: dose 150 mg/kg, route oral.
Series [3] has as its system Rattus norvegicus. Briefly: Toxicity in triton WR-1339-induced Rattus norvegicus albino Wistar (rat) hyperlipidemic model assessed as increase of serum total cholesterol level at 150 mg/kg, po qd after 24 hr. As to conditions: in vivo. Set-up: dose 150 mg/kg, route oral. Format: organism-based.
Series [4] has as its system Rattus norvegicus. Briefly: Toxicity in triton WR-1339-induced Rattus norvegicus albino Wistar (rat) hyperlipidemic model assessed as increase of serum total triglyceride level at 150 mg/kg, po qd after 24 hr. As to conditions: in vivo. Set-up: dose 150 mg/kg, route oral. The series is classed as organism-based.
In series [5] the test system is Rattus norvegicus. Briefly: Hypolipidemic activity in triton WR-1339-induced Rattus norvegicus albino Wistar (rat) hyperlipidemic model assessed as reduction of serum total triglyceride level at 150 mg/kg, po qd after 24 hr. Format: functional. Set-up: scale not given: the % may be the effect or the level left.
Series [6] relates to Rattus norvegicus. Briefly: Hypolipidemic activity in triton WR-1339-induced Rattus norvegicus albino Wistar (rat) hyperlipidemic model assessed as reduction of serum total cholesterol level at 150 mg/kg, po qd after 24 hr. The series is classed as functional. Set-up: scale not given: the % may be the effect or the level left.
The subject of series [7] is Rattus norvegicus. The series can be described thus: Hypolipidemic activity in triton WR-1339-induced Rattus norvegicus albino Wistar (rat) hyperlipidemic model assessed as increase of serum HDL level at 150 mg/kg, po qd after 24 hr. Format: functional.

Where only a bound is given, the exact number is not on record here.

For the compound `CC(C(=O)NCc1ccccc1)N1C(=O)c2ccccc2C1=O` (centres undefined), the Activity in series [1] is listed as 35.5%; in series [2], “Toxic”; in series [3], “Toxic”; in series [4], “Toxic”.
For `CC(C(=O)Nc1ccccc1)N1C(=O)c2ccccc2C1=O` (centres undefined), the Activity in series [5] and in series [6] was under 24% throughout.
In the case of `CCNC(=O)C(C)N1C(=O)c2ccccc2C1=O` (centres undefined), the Activity in series [1] is 35.5%; in series [2] it was “Toxic”; in series [3] it was “Toxic”; in series [4], “Toxic”.
Turning to `CCCNC(=O)C(C)N1C(=O)c2ccccc2C1=O` (centres undefined), the Activity in series [1] is on record as 35.5%; in series [2] it was “Toxic”; in series [3], “Toxic”; in series [4], “Toxic”.
Regarding `CC(C)NC(=O)C(C)N1C(=O)c2ccccc2C1=O` (centres undefined), the Activity in series [1] is given as 35.5%; in series [2], “Toxic”; in series [3], “Toxic”; in series [4] it was “Toxic”.
Turning to `CC(C(=O)NCCc1ccccc1)N1C(=O)c2ccccc2C1=O` (centres undefined), the Activity in series [1] is given as 35.5%; in series [2], “Toxic”; in series [3], “Toxic”; in series [4], “Toxic”.
As for `CC(C(=O)N1CCCC1)N1C(=O)c2ccccc2C1=O` (centres undefined), the Activity in series [1] is 35.5%; in series [2], “Toxic”; in series [3], “Toxic”; in series [4], “Toxic”.
`CCNC(=O)C(C)N1C(=O)c2cccc3cccc(c23)C1=O` (centres undefined): the Activity was 4.5% in series [1] and 29.3% in series [7].
Taken in the same sequence, the figures for `CC(C(=O)Nc1ccccc1)N1C(=O)c2cccc3cccc(c23)C1=O` (centres undefined) were 4.5% and 29.3%.
Taken in the same sequence, the figures for `CC(C(=O)NCc1ccccc1)N1C(=O)c2cccc3cccc(c23)C1=O` (centres undefined) were 4.5% and 29.3%.
For `CC(C(=O)NCc1ccccc1)n1c(=O)c2ccccc2c2ccccc2c1=O` (centres undefined), the values for the Activity in series [1] and in series [7] were 4.5% and 29.3%, respectively.
For the compound `CCNC(=O)c1ccccc1C(=O)NC(C)C(=O)NCC` (centres undefined), the Activity in series [5] is on record as 46.5%; in series [6] it was 48.6%.
With `CC(C)OC(=O)C(C)(C)Oc1ccc(C(=O)c2ccc(Cl)cc2)cc1` [FENOFIBRATE], the Activity in series [1] was 13%; in series [5], 20%; in series [6], 23%.
